Key:
Type in all cases: in vivo
[1] = test system: Green Peach Aphid (Myzus persicae); assay: Bioassays on Green Peach Aphid, foliar spray on cabbage seedlings; conditions: 72 h, 200 ppm spray on cabbage seedlings, three days, Abbott corrected % control, read-out: GPA % Control (or Mortality) rating
Description: Cabbage seedlings grown in 3-inch pots, with 2-3 small (3-5 cm) true leaves, were used as test substrate. The seedlings were infested with 20-50 GPA (wingless adult and nymph stages) one day prior to chemical application. Four pots with individual seedlings were used for each treatment. Test molecules (2 mg) were dissolved in 2 mL of acetone/methanol (1:1) solvent, forming stock solutions of 1000 ppm test molecule. The stock solutions were diluted 5× with 0.025% Tween 20 in water to obtain the solution at 200 ppm test molecule. A hand-held aspirator-type sprayer was used for spraying a solution to both sides of […] leaves until runoff. Reference plants (solvent check) were sprayed with the diluent only containing 20% by volume of acetone/methanol (1:1) solvent. Treated plants were held in a holding room for three days at approximately 25° C. and ambient relative humidity (RH) prior to grading. Evaluation was conducted by counting the number of live aphids per plant under a microscope. Percent Control was measured by using Abbott's correction formula (W. S. Abbott, “A Method of Computing the Effectiveness of an Insecticide” J. Econ. Entomol. 18 (1925), pp. 265-267) as follows.
Corrected % Control=100*(X−Y)/X • where • X=No. of live aphids on solvent check plants and • Y=No. of live aphids on treated plants

[2] = test system: Cabbage Looper (Trichoplusia ni); assay: Bioassays on CL, 128-well diet tray assay; conditions: Trichoplusia ni; for mortality at 50 µg/cm2: 168 h, 50 μg/cm^2 on artificial diet, second instar larvae, five to seven days, read-out: CL % Control (or Mortality) rating
Procedure, shortened: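 Second-instar larvae (1–5 per well) were fed diet surface-treated with 50 μg/cm^2 compound, eight wells each. After five to seven days at 25° C. under a 14:10 photoperiod, mortality was scored per well and the eight wells averaged.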

[3] = test system: Yellow Fever Mosquito (Aedes aegypti); assay: Bioassays on Yellow Fever Mosquito larvae, 96-well plate; conditions: from 4000 ppm DMSO master plate, about 1 day-old larvae, 3 days
Procedure, shortened: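 Aedes aegypti larvae about 1 day old, in water with liver powder, exposed in 96-well plates to compounds from a 4000 ppm DMSO master solution diluted in 90:10 water:acetone. Plates covered and held at room temperature for 3 days, then each well scored for mortality; 6 replicate plates.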

[4] = test system: Beet Armyworm (Spodoptera exigua); assay: Bioassays on BAW, 128-well diet tray assay; conditions: Spodoptera exigua; for mortality at 50 µg/cm2: 168 h, 50 μg/cm^2 on artificial diet, second instar larvae, five to seven days, read-out: BAW % Control (or Mortality) rating

Row | Compound | mortality at 200 ppm [1] [%] | mortality at 50 µg/cm2 [2] [%] | YFM % Control (or Mortality) rating [3] | mortality at 50 µg/cm2 [4] [%] | mortality at 0.05 µg/cm2 ([2]; 0.05 μg/cm^2, read-out: CL Percent control (or mortality)) [%] | mortality at 0.5 µg/cm2 ([2]; 0.5 μg/cm^2, read-out: CL Percent control (or mortality)) [%] | mortality at 5 µg/cm2 ([2]; 5 μg/cm^2, read-out: CL Percent control (or mortality)) [%] | mortality at 0.05 µg/cm2 ([4]; 0.05 μg/cm^2, read-out: BAW Percent control (or mortality)) [%] | mortality at 0.5 µg/cm2 ([4]; 0.5 μg/cm^2, read-out: BAW Percent control (or mortality)) [%] | mortality at 5 µg/cm2 ([4]; 5 μg/cm^2, read-out: BAW Percent control (or mortality)) [%]
1 | C[C@H](C[S+]([O-])CC(F)(F)F)NC(=O)c1ccc(/C=C/C(c2cc(Cl)c(F)c(Cl)c2)C(F)(F)F)cc1Br (stereo partly drawn) [F49, 2-Bromo-4-((E)-3-(3,5-dichloro-4-fluorophenyl)-4,4,4-trifluorobut-1-en-1-yl)-N-((2R)-1-((2,2,2-trifluoroethyl)sulfinyl)propan-2-yl)benzamide] | 0 | 50 to 100 | A (80-100) | 50 to 100 | – | – | – | – | – | –
2 | CS(=O)(=O)CC[C@@H](NC(=O)c1ccc(/C=C/C(c2cc(Cl)c(Cl)c(Cl)c2)C(F)(F)F)cc1C(F)(F)F)C(=O)NCC(F)(F)F (stereo partly drawn) [F26, N—((R)-4-(Methylsulfonyl)-1-oxo-1-((2,2,2-trifluoroethyl)amino)butan-2-yl)-4-((E)-4,4,4-trifluoro-3-(3,4,5-trichlorophenyl)but-1-en-1-yl)-2-(trifluoromethyl)benzamide] | 0 to 80 | 50 to 100 | B (More than 0-Less than 80) | 50 to 100 | – | – | – | – | – | –
3 | C[C@H](CSCC(F)(F)F)NC(=O)c1ccc(/C=C/C(c2cc(Cl)c(Cl)c(Cl)c2)C(F)(F)F)cc1C(F)(F)F (stereo partly drawn) [F22, 4-((E)-4,4,4-trifluoro-3-(3,4,5-trichlorophenyl)but-1-en-1-yl)-N—((R)-1-((2,2,2-trifluoroethyl)thio)propan-2-yl)-2-(trifluoromethyl)benzamide] | 80 to 100 | 50 to 100 | A (80-100) | 50 to 100 | – | – | – | – | – | –
4 | CCC[S+]([O-])C[C@@H](C)NC(=O)c1ccc(/C=C/C(c2cc(Cl)c(Cl)c(Cl)c2)C(F)(F)F)cc1C(F)(F)F (stereo partly drawn) [F111, N-((2R)-1-(Propylsulfinyl)propan-2-yl)-4-((E)-4,4,4-trifluoro-3-(3,4,5-trichlorophenyl)but-1-en-1-yl)-2-(trifluoromethyl)benzamide] | 0 to 80 | 50 to 100 | A (80-100) | 50 to 100 | – | – | – | – | – | –
5 | C[C@H](CSCC(F)(F)F)NC(=O)c1ccc(/C=C/C(c2cc(Cl)c(F)c(Cl)c2)C(F)(F)F)cc1C(F)(F)F (stereo partly drawn) [F35, 4-((E)-3-(3,5-Dichloro-4-fluorophenyl)-4,4,4-trifluorobut-1-en-1-yl)-N—((R)-1-((2,2,2-trifluoroethyl)thio)propan-2-yl)-2-(trifluoromethyl)benzamide] | 0 to 80 | 50 to 100 | A (80-100) | 50 to 100 | – | – | – | – | – | –
6 | C[C@H](CSCC(F)(F)F)NC(=O)c1ccc(/C=C/C(c2cc(Br)cc(Br)c2)C(F)(F)F)cc1C(F)(F)F (stereo partly drawn) [F56, 4-((E)-3-(3,5-Dibromophenyl)-4,4,4-trifluorobut-1-en-1-yl)-N—((R)-1-((2,2,2-trifluoroethyl)thio)propan-2-yl)-2-(trifluoromethyl)benzamide] | 0 | 50 to 100 | A (80-100) | 50 to 100 | – | – | – | – | – | –
7 | CCS(=O)(=O)C[C@@H](C)NC(=O)c1ccc(/C=C/C(c2cc(Cl)c(Cl)c(Cl)c2)C(F)(F)F)cc1C(F)(F)F (stereo partly drawn) [F68, N—((R)-1-(Ethylsulfonyl)propan-2-yl)-4-((E)-4,4,4-trifluoro-3-(3,4,5-trichlorophenyl)but-1-en-1-yl)-2-(trifluoromethyl)benzamide] | 0 to 80 | 50 to 100 | A (80-100) | 50 to 100 | – | – | – | – | – | –
8 | C[C@H](CS(=O)(=O)CC(F)(F)F)NC(=O)c1ccc(/C=C/C(c2cc(Cl)c(Cl)c(Cl)c2)C(F)(F)F)cc1Cl (stereo partly drawn) [F58, 2-Chloro-4-((E)-4,4,4-trifluoro-3-(3,4,5-trichlorophenyl)but-1-en-1-yl)-N—((R)-1-((2,2,2-trifluoroethyl)sulfonyl)propan-2-yl)benzamide] | 0 | 50 to 100 | A (80-100) | 50 to 100 | 100 | 100 | 100 | 100 | 100 | 100

Source: patent US20170210723A1, “MOLECULES HAVING PESTICIDAL UTILITY, AND INTERMEDIATES, COMPOSITIONS, AND PROCESSES, RELATED THERETO” (priority 2016, published 2017)
